Key:
[1] = system: mixed suspension of test germs (bacteria, yeasts, fungi); test: Preserving effect under repeated inoculation in humectant formulation 6940; assay type: cell-based; set-up: key: −=no growth; ++=moderate growth; +++=massive growth
Procedure: B) Humectant Formulation 6940
In accordance with Seppic formulation procedure, without preservative.
(§1) Using the described method, the effectiveness of chemical preservatives is tested with regard to the pack preservation for cosmetic formulations. For this purpose, in various experimental batches, the preservatives to be investigated are added to the unpreserved samples in various concentrations. A continuous germ burden is achieved by periodically inoculating the experimental batches. In parallel to the inoculation, streaks of each of the individual batches are in each case made immediately beforehand. Assessment is made by reference to the microbial growth of the streaks.
The bacteria are streaked uniformly over the entire surface of a CS nutrient medium using a sterile glass rod and incubated for 24 h at 30±1° C. The yeast C. albicans is streaked using a sterile glass rod on a Sabouraud nutrient medium and incubated for 48 h at 30±1° C.
The fungi A. niger and P. funiculosum are streaked using a sterile glass rod on one (A. niger) or two (P. funiculosum) Sabouraud plates (comprising 100 μg/ml of gentamycin and 50 μg/ml of chloramphenicol) and incubated for 7 to 14 days at 25±2° C.
To prepare the mixed suspensions, the bacteria, per strain one plate, are rinsed off with 5 ml of a sterile 0.85% NaCl solution per CSA plate, (sterile) filtered through a sterile glass funnel containing glass wool and made up to 150 ml with 0.85% NaCl solution. This bacteria suspension has a titre of ˜10^10 CFU/ml.
The yeast C. albicans is likewise rinsed off with 10 ml of sterile 0.85% NaCl solution from a Sabouraud plate and (sterile) filtered through a sterile glass funnel containing glass wool. 10 ml of each of the fungi suspensions (A. niger and P. funiculosum) prepared as described above are added to this suspension. 3 ml of the bacteria suspension prepared as described above (titre ˜10^10 CFU/ml) are added. The resulting mixed suspension is made to 150 ml with sterile 0.85% NaCl solution.
The bacteria titre of the mixed suspension is ˜10^8 CFU/ml. The titre for C. albicans in the mixed suspension is ˜10^8 CFU/ml. The titre for A. niger and P. funiculosum in the mixed suspension is ˜10^6 CFU/ml.
In separate batches, 25 or 50 g of the material to be preserved are in each case admixed with varying concentrations of the preservative to be investigated. The growth control used in each case is an unpreserved product sample.
The test batches are streaked onto CS and Sabouraud nutrient media once per week, the first streaking being carried out directly prior to reinoculation; these batches are then inoculated with the mixed suspension (in the case of 25 g samples with 0.1 ml, in the case of 50 g samples with 0.2 ml). The inoculated samples are incubated at 25° C.±2° C. over the entire experimentation period.
The microbial growth of the streaks incubated at 25° C.±2° C. is assessed after 3 to 4 days. To be on the safe side, negative streaks are observed for a further 2 days and reassessed. The preserving effect of the individual product concentrations is assessed in a semiquantitative method by means of the growth of the individual streaks according to the grading from “−” via “+” to “+++”. The test is usually carried out over 6 inoculation cycles or terminated after massive growth (+++) on two occasions.
(§2) If even after five successive inoculation cycles growth can be detected neither in the preserved samples nor in the unpreserved product sample (blank value), then the inoculation in the sixth inoculation cycle is carried out with five times the amount of the mixed suspension (0.5 ml in the case of 25 g samples, 1 ml in the case of 50 g samples).
A preservative is considered good if it exists under the laboratory conditions given above for a period of 6 weeks without germ infestation of the sample batches, i.e. even after the sixth inoculation, no microbial growth can be detected.

[2] = system: mixed suspension of test germs (bacteria, yeasts, fungi); test: Preserving effect under repeated inoculation in the standard gel; assay type: cell-based; set-up: key: −=no growth; −=slight growth; ++=moderate growth; +++=massive growth; conditions: preservative 0.1%
Procedure: CARBOPOL is dispersed in glycerol. In batches, the water and then NaOH are added thereto. The gel immediately becomes thick.
as §1, with “streaks. […]” for “streaks.”
The microbial growth of the streaks incubated at 25° C.±2° C. is assessed after 3 to 4 days. […] The preserving effect of the individual product concentrations is assessed in a semiquantitative method by means of the growth of the individual streaks according to the grading from “−” via “+” to “+++”. […]
as §2, with “samples). […]” for “samples).”

CCCCC(CC)COCC(O)CO (centres unmarked) [SENSIVA, 1-(2-ethylhexyl) glycerol ether]
microbial growth of the streaks ([1]; formulation 6940, preservative 0.1%, 4 days): −
microbial growth of the streaks ([1]; formulation 6940, preservative 0.1%, 10 days): +++
microbial growth of the streaks ([1]; formulation 6940, preservative 0.1%, 17 days): +++
microbial growth of the streaks ([1]; formulation 6940, preservative 0.2%, 4 days): −
microbial growth of the streaks ([1]; formulation 6940, preservative 0.2%, 10 days): +++
microbial growth of the streaks ([1]; formulation 6940, preservative 0.2%, 17 days): +++
microbial growth of the streaks ([1]; formulation 6940, preservative 0.3%, 4 days): −
microbial growth of the streaks ([1]; formulation 6940, preservative 0.3%, 10 days): +++
microbial growth of the streaks ([1]; formulation 6940, preservative 0.3%, 17 days): +++
microbial growth of the streaks ([2]; 10 days): +++
microbial growth of the streaks ([2]; 17 days): +++
